Measured values as given in PubChem BioAssay (NCI).
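Cells were grown in 96-well plates and exposed to each compound for 48 hours at five concentrations; endpoints were interpolated linearly between bracketing concentrations, or set to the highest concentration if not reached. GI50: concentration for 50% inhibition of growth. TGI denotes the concentration required for complete inhibition of growth.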

What was measured:
Assay in all cases: DTP human tumour cell line panel, 48 h
[1] = tested on: SK-MEL-5 melanoma
[2] = tested on: HT29 colon
[3] = tested on: SF-539 CNS
[4] = tested on: HS 578T breast
[5] = tested on: CCRF-CEM leukemia
[6] = tested on: SR leukemia
[7] = tested on: DU-145 prostate
[8] = tested on: HL-60(TB) leukemia
[9] = tested on: MDA-MB-435
[10] = tested on: T-47D breast
[11] = tested on: HOP-62 NSCLC
[12] = tested on: IGROV1 ovarian
[13] = tested on: ACHN renal
[14] = tested on: BT-549 breast
[15] = tested on: NCI-H226 lung
[16] = tested on: HCT-116 colon
[17] = tested on: SNB-19 CNS
[18] = tested on: 786-0 renal
[19] = tested on: HCC-2998 colon
[20] = tested on: RXF 393 renal
[21] = tested on: A498 renal
[22] = tested on: MDA-MB-231 breast
[23] = tested on: TK-10 renal
[24] = tested on: SF-268 CNS
[25] = tested on: LOX IMVI melanoma
[26] = tested on: KM12 colon
[27] = tested on: NCI-H522 lung
[28] = tested on: SNB-75 CNS
[29] = tested on: SW-620 colon
[30] = tested on: UO-31 renal
[31] = tested on: MALME-3M melanoma
[32] = tested on: SN12C renal
[33] = tested on: OVCAR-5 ovarian
[34] = tested on: SK-MEL-28 melanoma
[35] = tested on: UACC-62 melanoma
[36] = tested on: OVCAR-4 ovarian
[37] = tested on: NCI/ADR-RES ovarian
[38] = tested on: NCI-H460 lung
[39] = tested on: A549 NSCLC
[40] = tested on: NCI-H23 lung
[41] = tested on: UACC-257 melanoma
[42] = tested on: K-562 leukemia
[43] = tested on: SK-MEL-2 melanoma
[44] = tested on: MOLT-4 leukemia
[45] = tested on: HCT-15 colon
[46] = tested on: U251 CNS
[47] = tested on: MCF7 breast
[48] = tested on: COLO 205 colon
[49] = tested on: SK-OV-3 ovarian
[50] = tested on: OVCAR-3 ovarian
[51] = tested on: PC-3 prostate
[52] = tested on: RPMI-8226 leukemia
[53] = tested on: CAKI-1 renal
[54] = tested on: OVCAR-8 ovarian
[55] = tested on: SF-295 CNS
[56] = tested on: HOP-92 NSCLC
[57] = tested on: EKVX NSCLC
[58] = tested on: M14 melanoma

Compound `COc1ccc(C2NCCc3c2[nH]c2ccccc32)cc1CN1CCN(c2ccc(F)cc2)CC1` (centres undefined) has a GI50 [1] of 1.63 µM, a TGI [1] of 3.01 µM and a GI50 [2] of 1.7 µM. The TGI [2] was 3.49 µM, the GI50 [3] was 1.88 µM and the TGI [3] was 3.42 µM. The GI50 [4] was 1.6 µM, the TGI [4] was 3.75 µM and the GI50 [5] was 2.8 µM. The TGI [5] was 7.19 µM, the GI50 [6] was 1.78 µM and the TGI [6] was 5.28 µM. The GI50 [7] was 2.76 µM, the TGI [7] was 7.81 µM and the GI50 [8] was 2.14 µM. It also gave a TGI [8] of 4.77 µM, a GI50 [9] of 1.66 µM and a TGI [9] of 3.06 µM. It also gave a GI50 [10] of 1.88 µM, a TGI [10] of 3.94 µM and a GI50 [11] of 1.81 µM. For the same compound, the TGI [11] was 3.82 µM, the GI50 [12] was 2.5 µM and the TGI [12] was 6.29 µM. It also gave a GI50 [13] of 1.87 µM, a TGI [13] of 3.69 µM and a GI50 [14] of 7.55 µM. The TGI [14] was 20 µM, the GI50 [15] was 13 µM and the TGI [15] was 35.1 µM. It also gave a GI50 [16] of 1.62 µM, a TGI [16] of 3 µM and a GI50 [17] of 3.54 µM. It also gave a TGI [17] of 13 µM, a GI50 [18] of 1.71 µM and a TGI [18] of 3.17 µM. For the same compound, the GI50 [19] was 1.61 µM, the TGI [19] was 3.33 µM and the GI50 [20] was 1.37 µM. The TGI [20] was 2.94 µM, the GI50 [21] was 0.399 µM and the TGI [21] was 4.21 µM. For the same compound, the GI50 [22] was 1.4 µM, the TGI [22] was 3.36 µM and the GI50 [23] was 3.2 µM. The TGI [23] was 9.65 µM, the GI50 [24] was 2.57 µM and the TGI [24] was 7.82 µM. The GI50 [25] was 1.64 µM, the TGI [25] was 3.09 µM and the GI50 [26] was 1.86 µM. For the same compound, the TGI [26] was 3.33 µM, the GI50 [27] was 1.93 µM and the TGI [27] was 3.73 µM. It also gave a GI50 [28] of 1.25 µM, a TGI [28] of 2.52 µM and a GI50 [29] of 1.74 µM. It also gave a TGI [29] of 3.33 µM, a GI50 [30] of 1.57 µM and a TGI [30] of 4.12 µM. It also gave a GI50 [31] of 1.88 µM, a TGI [31] of 3.49 µM and a GI50 [32] of 3.47 µM. It also gave a TGI [32] of 15.5 µM, a GI50 [33] of 2.13 µM and a TGI [33] of 5.2 µM. For the same compound, the GI50 [34] was 1.61 µM, the TGI [34] was 3.05 µM and the GI50 [35] was 1.8 µM. For the same compound, the TGI [35] was 3.32 µM, the GI50 [36] was 2.28 µM and the TGI [36] was 7.22 µM. The GI50 [37] was 2.27 µM, the TGI [37] was 5.89 µM and the GI50 [38] was 1.85 µM. The TGI [38] was 3.49 µM, the GI50 [39] was 2.9 µM and the TGI [39] was 9.29 µM. For the same compound, the GI50 [40] was 4.77 µM, the TGI [40] was 17 µM and the GI50 [41] was 1.76 µM. It also gave a TGI [41] of 3.26 µM, a GI50 [42] of 1.73 µM and a TGI [42] of 4.09 µM. For the same compound, the GI50 [43] was 2.14 µM, the TGI [43] was 3.93 µM and the GI50 [44] was 1.97 µM. The TGI [44] was 5.25 µM, the GI50 [45] was 1.61 µM and the TGI [45] was 3.06 µM. For the same compound, the GI50 [46] was 1.56 µM, the TGI [46] was 2.93 µM and the GI50 [47] was 1.66 µM. The TGI [47] was 3.27 µM, the GI50 [48] was 1.93 µM and the TGI [48] was 3.65 µM. The GI50 [49] was 2.53 µM, the TGI [49] was 6.01 µM and the GI50 [50] was 2.1 µM. It also gave a TGI [50] of 4.52 µM, a GI50 [51] of 2.21 µM and a TGI [51] of 5.35 µM. It also gave a GI50 [52] of 2.47 µM, a TGI [52] of 5.65 µM and a GI50 [53] of 1.57 µM. The TGI [53] was 3.31 µM, the GI50 [54] was 1.89 µM and the TGI [54] was 3.95 µM. For the same compound, the GI50 [55] was 1.75 µM, the TGI [55] was 3.4 µM and the GI50 [56] was 2 µM. For the same compound, the TGI [56] was 5.91 µM.
`Cc1cc(S(=O)(=O)Nc2nc3ccsc3c(=O)n2Cc2ccco2)c(S)cc1Cl` was tested, and the GI50 [1] was 42.9 µM, the TGI [1] was over 100 µM and the GI50 [2] was over 100 µM. The TGI [2] was over 100 µM, the GI50 [3] was over 100 µM and the TGI [3] was over 100 µM. The GI50 [4] was 81 µM, the TGI [4] was over 100 µM and the GI50 [5] was 50.7 µM. For the same compound, the TGI [5] was over 100 µM, the GI50 [6] was 9.95 µM and the TGI [6] was 29.7 µM. It also gave a GI50 [7] of over 100 µM, a TGI [7] of over 100 µM and a GI50 [8] of 25.5 µM. For the same compound, the TGI [8] was over 100 µM, the GI50 [57] was over 100 µM and the TGI [57] was over 100 µM. The GI50 [9] was over 100 µM, the TGI [9] was over 100 µM and the GI50 [10] was over 100 µM. It also gave a TGI [10] of over 100 µM, a GI50 [11] of over 100 µM and a TGI [11] of over 100 µM. It also gave a GI50 [12] of over 100 µM, a TGI [12] of over 100 µM and a GI50 [13] of over 100 µM. It also gave a TGI [13] of over 100 µM, a GI50 [14] of over 100 µM and a TGI [14] of over 100 µM. For the same compound, the GI50 [15] was over 100 µM, the TGI [15] was over 100 µM and the GI50 [16] was over 100 µM. It also gave a TGI [16] of over 100 µM, a GI50 [17] of 99 µM and a TGI [17] of over 100 µM. It also gave a GI50 [18] of over 100 µM, a TGI [18] of over 100 µM and a GI50 [19] of over 100 µM. It also gave a TGI [19] of over 100 µM, a GI50 [20] of over 100 µM and a TGI [20] of over 100 µM. For the same compound, the GI50 [21] was over 100 µM, the TGI [21] was over 100 µM and the GI50 [22] was over 100 µM. For the same compound, the TGI [22] was over 100 µM, the GI50 [23] was over 100 µM and the TGI [23] was over 100 µM. It also gave a GI50 [24] of 99 µM, a TGI [24] of over 100 µM and a GI50 [25] of over 100 µM. It also gave a TGI [25] of over 100 µM, a GI50 [26] of over 100 µM and a TGI [26] of over 100 µM. The GI50 [27] was over 100 µM, the TGI [27] was over 100 µM and the GI50 [28] was over 100 µM. For the same compound, the TGI [28] was over 100 µM, the GI50 [29] was over 100 µM and the TGI [29] was over 100 µM. The GI50 [30] was over 100 µM, the TGI [30] was over 100 µM and the GI50 [31] was over 100 µM. The TGI [31] was over 100 µM, the GI50 [32] was over 100 µM and the TGI [32] was over 100 µM. The GI50 [33] was over 100 µM, the TGI [33] was over 100 µM and the GI50 [34] was over 100 µM. It also gave a TGI [34] of over 100 µM, a GI50 [35] of 53.1 µM and a TGI [35] of over 100 µM. For the same compound, the GI50 [36] was over 100 µM, the TGI [36] was over 100 µM and the GI50 [37] was over 100 µM. It also gave a TGI [37] of over 100 µM, a GI50 [38] of 60.6 µM and a TGI [38] of over 100 µM. The GI50 [39] was over 100 µM, the TGI [39] was over 100 µM and the GI50 [40] was over 100 µM. It also gave a TGI [40] of over 100 µM, a GI50 [58] of over 100 µM and a TGI [58] of over 100 µM. For the same compound, the GI50 [41] was over 100 µM, the TGI [41] was over 100 µM and the GI50 [42] was 25.6 µM. The TGI [42] was over 100 µM, the GI50 [44] was 19.4 µM and the TGI [44] was 84.2 µM. The GI50 [45] was over 100 µM, the TGI [45] was over 100 µM and the GI50 [46] was 96.3 µM. It also gave a TGI [46] of over 100 µM, a GI50 [47] of over 100 µM and a TGI [47] of over 100 µM. It also gave a GI50 [48] of over 100 µM, a TGI [48] of over 100 µM and a GI50 [50] of over 100 µM. It also gave a TGI [50] of over 100 µM, a GI50 [51] of over 100 µM and a TGI [51] of over 100 µM. For the same compound, the GI50 [52] was 59 µM, the TGI [52] was over 100 µM and the GI50 [53] was over 100 µM. The TGI [53] was over 100 µM, the GI50 [54] was over 100 µM and the TGI [54] was over 100 µM. It also gave a GI50 [55] of 62.8 µM, a TGI [55] of over 100 µM and a GI50 [56] of over 100 µM. It also gave a TGI [56] of over 100 µM.
